Laboratory results from US20240316132A1 (priority 2023, published 2024).
Values after ≈ are worked out from the molar mass of the structure shown.

Key:
[1] = Solubility in mineral oil; format: physicochemical; conditions: oil or lipid, under certain conditions
[2] = Solubility in DMDA / Met10u high-KB amide surfactant; format: physicochemical
Solubility in water = format: physicochemical
[3] = Thermal stability (decarboxylation of CBDA to CBD); format: physicochemical; conditions: saturated solution of CBDA in Met10u
[4] = cited from earlier work

Compound	solubility [1] [mg/mL]	solubility ([2]; DMDA (high-KB amide surfactant), organic solvent or mixture, at 70 C) [mg/mL]	solubility of CBDA in Met10u ([2]; at 0 C) [%]	solubility of CBDA in Met10u ([2]; at 60 C) [%]	solubility of CBDA in water (Solubility in water; temperature of 4 degrees Celsius or lower, pH 4 or lower)	solubility of CBDA in water (Solubility in water; temperature of 70 degrees Celsius or higher, pH of 10 or higher)	temperature at which CBDA begins to lose its carboxylic moiety (decarboxylation) and become CBD [3]	pKa [4]
C=C(C)[C@@H]1CCC(C)=C[C@H]1c1c(O)cc(CCCCC)c(C(=O)O)c1O [CBDA, Δ(9)-tetrahydrocannabidiolic acid]	~6 (≈ 16.7 mM)	> 1000	1	100	below 20 micrograms per milliliter	over 20 milligrams per milliliter	at least 130 C	–
CCCCC/C=C\C/C=C\CCCCCCCC(=O)O [Linoleic acid, linoleic acid]	–	–	–	–	–	–	–	9.24
